Holding throughout (assay type): functional
Test [1] has as its system Candida albicans. In words: Antifungal activity against Candida albicans CPCC400616 measured after 24 hrs by micro-broth dilution assay. Background: In broth dilution the organism is exposed to a series of concentrations in liquid medium.
The subject of test [2] is Candida albicans. In words: Antifungal activity against Candida albicans ATCC SC5314 measured after 24 hrs by micro-broth dilution assay.
Test [3] concerns [Candida] zeylanoides. In words: Antifungal activity against Candida zeylanoides CMGCC2.3739 measured after 24 hrs by micro-broth dilution assay. As to conditions: Dujonia zeylanoides.
Test [4] deals with Cryptococcus neoformans. In words: Antifungal activity against Cryptococcus neoformans CGMCC2.3161 measured after 72 hrs by micro-broth dilution assay.
For test [5], the system named is Pichia kudriavzevii. In words: Antifungal activity against Candida krusei AS 2.1045 measured after 24 hrs by micro-broth dilution assay.
Test [6] relates to Nakaseomyces glabratus. In words: Antifungal activity against clinical isolate Candida glabrata measured after 24 hrs by micro-broth dilution assay.
In test [7] the test system is Candida parapsilosis. In words: Antifungal activity against Candida parapsilosis ATCC 22019 measured after 24 hrs by micro-broth dilution assay. As to conditions: Lodderomyces parapsilosis.
The subject of test [8] is Aspergillus fumigatus. In words: Antifungal activity against Aspergillus fumigatus CGMCC 3.7795 measured after 72 hrs by micro-broth dilution assay.
The subject of test [9] is Candida albicans. In words: Antifungal activity against fluconazole-resistant Candida albicans CaR measured after 24 hrs by micro-broth dilution assay.
In test [10] the test system is Candida albicans. In words: Antifungal activity against fluconazole-resistant Candida albicans 17 measured after 24 hrs by micro-broth dilution assay.
Test [11] deals with Candida albicans. In words: Antifungal activity against fluconazole-resistant Candida albicans 632 measured after 24 hrs by micro-broth dilution assay.
The test system of test [12] is Candida albicans. In words: Antifungal activity against Candida albicans 901 measured after 24 hrs by micro-broth dilution assay.
The test system of test [13] is Candida albicans. In words: Antifungal activity against fluconazole-resistant Candida albicans strain 904 measured after 24 hrs by micro-broth dilution assay.

SMILES strings stand for the structures. Converted amounts (≈) assume the structure as drawn.

For orientation: MIC means the lowest concentration that inhibits growth of the organism. Low readings indicate greater potency, high ones weaker potency.

With `COc1cccc(C[Se]C(Cn2ccnc2)c2ccc(Cl)cc2Cl)c1` (configuration not stated), the MIC was 0.06 µg/mL (≈ 0.136 µM) in test [1]; 0.06 µg/mL (≈ 0.136 µM) in [2]; 1 µg/mL (≈ 2.27 µM) in test [3]; 0.13 µg/mL (≈ 0.295 µM) in test [4]; 1 µg/mL (≈ 2.27 µM) in [5]; 0.25 µg/mL (≈ 0.568 µM) in [6]. Moreover, the minimal inhibitory concentration (MIC) in [7] turned out to be 0.13 µg/mL (≈ 0.295 µM); in test [8], 2 µg/mL (≈ 4.54 µM); in [9], 2 µg/mL (≈ 4.54 µM); in [10], 4 µg/mL (≈ 9.09 µM); in [11] it was 2 µg/mL (≈ 4.54 µM); in test [12], 1 µg/mL (≈ 2.27 µM). In addition, the minimal inhibitory concentration (MIC) in test [13] turned out to be 1 µg/mL (≈ 2.27 µM).

For `Cc1cccc(C[Se]C(Cn2ccnc2)c2ccc(F)cc2F)c1` (configuration not stated), the MIC in [1] worked out at 0.13 µg/mL (≈ 0.332 µM); in test [2], 0.06 µg/mL (≈ 0.153 µM); in test [3], 1 µg/mL (≈ 2.56 µM); in [4] it was 0.5 µg/mL (≈ 1.28 µM); in test [5] it was 1 µg/mL (≈ 2.56 µM); in test [6], 1 µg/mL (≈ 2.56 µM). Moreover, the MIC is 0.25 µg/mL (≈ 0.639 µM) in test [7]; 2 µg/mL (≈ 5.11 µM) in test [8]; 2 µg/mL (≈ 5.11 µM) in [9]; 8 µg/mL (≈ 20.4 µM) in test [10]; 16 µg/mL (≈ 40.9 µM) in test [11]; 4 µg/mL (≈ 10.2 µM) in test [12]. Besides, inhibition of growth in test [13] (MIC) required 1 µg/mL (≈ 2.56 µM).

In the case of `COc1cc(C[Se]C(Cn2ccnc2)c2ccc(F)cc2F)cc(OC)c1` (configuration not stated), the MIC was 0.5 µg/mL (≈ 1.14 µM) in [1]; 0.13 µg/mL (≈ 0.297 µM) in [2]; 1 µg/mL (≈ 2.29 µM) in test [3]; 8 µg/mL (≈ 18.3 µM) in test [4]; 8 µg/mL (≈ 18.3 µM) in test [5]; 0.5 µg/mL (≈ 1.14 µM) in test [6]. Moreover, the MIC in [7] was 8 µg/mL (≈ 18.3 µM); in test [8] it was 8 µg/mL (≈ 18.3 µM); in test [9], 128 µg/mL (≈ 293 µM); in [10] it was 8 µg/mL (≈ 18.3 µM); in test [11] it was 8 µg/mL (≈ 18.3 µM); in test [12], 2 µg/mL (≈ 4.57 µM). The lowest concentration to inhibit growth in test [13] (MIC) was 4 µg/mL (≈ 9.15 µM).

As to `Fc1ccc(C[Se]C(Cn2ccnc2)c2ccc(F)cc2F)cc1` (configuration not stated), the minimal inhibitory concentration (MIC) worked out at 0.06 µg/mL (≈ 0.152 µM) in [1]; 0.03 µg/mL (≈ 0.0759 µM) in test [2]; 1 µg/mL (≈ 2.53 µM) in test [3]; 0.5 µg/mL (≈ 1.26 µM) in [4]; 1 µg/mL (≈ 2.53 µM) in test [5]; 1 µg/mL (≈ 2.53 µM) in [6]. Further, the MIC is 0.25 µg/mL (≈ 0.632 µM) in test [7]; 2 µg/mL (≈ 5.06 µM) in test [8]; 8 µg/mL (≈ 20.2 µM) in test [9]; 32 µg/mL (≈ 81 µM) in test [10]; 32 µg/mL (≈ 81 µM) in [11]; 4 µg/mL (≈ 10.1 µM) in [12]. It took 8 µg/mL (≈ 20.2 µM) to inhibit growth in test [13] (MIC).

With `Fc1ccc(C(Cn2ccnc2)[Se]Cc2ccccc2)c(F)c1` (configuration not stated), the minimal inhibitory concentration (MIC) is 0.25 µg/mL (≈ 0.663 µM) in [1]; 0.13 µg/mL (≈ 0.345 µM) in test [2]; 0.5 µg/mL (≈ 1.33 µM) in test [3]; 0.5 µg/mL (≈ 1.33 µM) in [4]; 0.25 µg/mL (≈ 0.663 µM) in test [5]; 1 µg/mL (≈ 2.65 µM) in [6]. In addition, the MIC in test [7] stood at 0.13 µg/mL (≈ 0.345 µM); in [8] it was 1 µg/mL (≈ 2.65 µM); in test [9], 4 µg/mL (≈ 10.6 µM); in test [10] it was 8 µg/mL (≈ 21.2 µM); in [11], 4 µg/mL (≈ 10.6 µM); in test [12] it was 2 µg/mL (≈ 5.3 µM). The compound also displayed a minimum inhibitory concentration (MIC) in test [13] of 64 µg/mL (≈ 170 µM).

Turning to `Fc1ccc(C[Se]C(Cn2ccnc2)c2ccc(Cl)cc2Cl)cc1` (configuration not stated), the MIC in test [1] amounted to 0.03 µg/mL (≈ 0.0701 µM); in test [2] it was 0.03 µg/mL (≈ 0.0701 µM); in [3] it was 4 µg/mL (≈ 9.34 µM); in [4], 0.25 µg/mL (≈ 0.584 µM); in test [5], 1 µg/mL (≈ 2.34 µM); in [6], 0.13 µg/mL (≈ 0.304 µM). The MIC was 0.5 µg/mL (≈ 1.17 µM) in test [7]; 2 µg/mL (≈ 4.67 µM) in test [8]; 16 µg/mL (≈ 37.4 µM) in test [9]; 4 µg/mL (≈ 9.34 µM) in [10]; 128 µg/mL (≈ 299 µM) in test [11]; 32 µg/mL (≈ 74.7 µM) in test [12]. Besides, inhibition of growth in [13] (MIC) required 64 µg/mL (≈ 149 µM).

With `COc1cc(Br)c(C[Se]C(Cn2ccnc2)c2ccc(Cl)cc2Cl)cc1OC` (configuration not stated), the MIC in test [1] was 0.25 µg/mL (≈ 0.455 µM); in test [2], 0.03 µg/mL (≈ 0.0546 µM); in test [3], > 128 µg/mL; in [4], 0.5 µg/mL (≈ 0.91 µM); in test [5], > 128 µg/mL; in [6], 0.5 µg/mL (≈ 0.91 µM). The minimal inhibitory concentration (MIC) in [7] is > 128 µg/mL; in [8], 16 µg/mL (≈ 29.1 µM); in test [9], 128 µg/mL (≈ 233 µM); in test [10], > 128 µg/mL; in test [11], > 128 µg/mL; in test [12], 128 µg/mL (≈ 233 µM). Besides, the MIC in test [13] was 32 µg/mL (≈ 58.3 µM).

As to `Clc1ccc(C(Cn2ccnc2)[Se]Cc2ccccc2)c(Cl)c1` (configuration not stated), the MIC in test [1] was determined as 0.06 µg/mL (≈ 0.146 µM); in [2], 0.02 µg/mL (≈ 0.0488 µM); in [3] it was 0.5 µg/mL (≈ 1.22 µM); in [4], 0.5 µg/mL (≈ 1.22 µM); in test [5], 0.5 µg/mL (≈ 1.22 µM); in test [6] it was 0.5 µg/mL (≈ 1.22 µM). In addition, the MIC was 0.25 µg/mL (≈ 0.609 µM) in test [7]; 0.5 µg/mL (≈ 1.22 µM) in test [8]; 4 µg/mL (≈ 9.75 µM) in [9]; 4 µg/mL (≈ 9.75 µM) in test [10]; 2 µg/mL (≈ 4.88 µM) in test [11]; 1 µg/mL (≈ 2.44 µM) in [12]. The compound also had an MIC in test [13] of 0.5 µg/mL (≈ 1.22 µM).

With `Cc1ccc(C[Se]C(Cn2ccnc2)c2ccc(Cl)cc2Cl)cc1C` (configuration not stated), the MIC was determined as 0.25 µg/mL (≈ 0.57 µM) in [1]; 4 µg/mL (≈ 9.13 µM) in [2]; 128 µg/mL (≈ 292 µM) in test [3]; 0.5 µg/mL (≈ 1.14 µM) in [4]; 128 µg/mL (≈ 292 µM) in [5]; 0.5 µg/mL (≈ 1.14 µM) in [6]. For the same compound, the MIC in [7] is > 128 µg/mL; in test [8], 4 µg/mL (≈ 9.13 µM); in [9] it was 128 µg/mL (≈ 292 µM); in [10] it was 8 µg/mL (≈ 18.3 µM); in test [11], 16 µg/mL (≈ 36.5 µM); in [12] it was 32 µg/mL (≈ 73 µM). This compound gave an MIC in test [13] of 128 µg/mL (≈ 292 µM).

The values are drawn from ChEMBL document CHEMBL4765323, “Design, synthesis, and biological evaluation of novel miconazole analogues containing selenium as potent antifungal agents” (Eur J Med Chem, 2020).
